≈ marks a conversion by molar mass, not a printed value. Entries after “also recorded” stand apart in the source; their conditions may differ.
What was measured:
[1] = Solubility in water and formulation vehicles
[2] = Hygroscopicity by dynamic vapor sorption; assay type: physicochemical; settings: 0% to 90% RH, monohydrate
Protocol: The hydroscopicity of the anhydrous Form V and the hydrated forms was determined using dyanamic vapor sorption, including the plot for Form I shown in FIG. 2. This was performed under the following conditions. RH was set at 0%, 30%, 52.5%, 75% and 90%, with the sample exposed for 3 hours at each RH for two full cycles.

[3] = Solid-state stability on exposure to light, humidity and heat (XRD and HPLC; water loss); assay type: physicochemical
physchem = settings: Table 4, (batch size 95, 50, 120, 54, 18.5, 550 g)
[4] = Conversion of crystal form on treatment with water; assay type: physicochemical; settings: for form conversion in heated water: water at 90° C. or 95° C.
Protocol: Forms II, III, IV and Form VI can all be transformed into Form I by treatment with water, e.g. by heating in water. The water may be at room temperature. The water may be heated to at least about 90° C., and as high as at least about 95° C.
Form V is the anhydrous form, producing substantially Pattern E in FIGS. 1 and 8 when scanned by XRD, and has the highest transition temperature of all the polymorphic forms, i.e., about 148° C. It is also readily converted to Form I by treatment with heated water. The water is heated to at least about 90° C., and more preferably is heated to at least about 95° C. […] This hydrated form is different from either Form I or V, as shown by the XRD scan in FIG. 4.
FIG. 3. This is a differential scanning calorimeter (DSC) plot and a theromogravimetric analysis (TGA) plot of Form V after suspension in water for two months and ten days at room temperature.

[5] = Table 4, (batch size 95, 50, 120, 54, 18.5, 550 g), listed as Pattern D

COc1cc(Nc2c(C#N)cnc3cc(OCCCN4CCN(C)CC4)c(OC)cc23)c(Cl)cc1Cl [4-[(2,4-dichloro-5-methoxyphenyl)amino]-6-methoxy-7-[3-(4-methyl-1-piperazinyl)propoxy]-3-quinolinecarbonitrile]
solubility enhancement with about 2% Tween80 ([1]; about 2% Tween80): about 100 fold
solubility ([1]; about 2% Tween80, aqueous with cosolvent or surfactant or cyclodextrin, solubility with addition of about 2% Tween80, about 2% Tween80 (detergent)): 100 to 400 µg/mL (≈ 189 to 754 µM)
solubility ([1]; aqueous with cosolvent or surfactant or cyclodextrin, solubility with addition of about 0.06% acetic acid (in-situ acetate salt vehicle), about 2% Tween80 plus about 0.06% acetic acid): 3000 to 4000 µg/mL
solubility ([1]; de-ionized water, pH 7.2, water, solubility in de-ionized water, partially ionized, resulting pH 7.2): 1.8 µg/mL (≈ 3.39 µM)
solubility enhancement with about 0.06% acetic acid ([1]; in-situ acetate salt vehicle): ~1000 fold
solubility ([1]; pH 8, aqueous buffer, intrinsic (neutral form) solubility, pH 8.0): ~0.06 µg/mL (≈ 0.113 µM)
solubility ([1]; stomach acid, simulated gastric fluid, solubility in stomach acid): > 200000 µg/mL

COc1cc(Nc2c(C#N)cnc3cc(OCCCN4CCN(C)CC4)c(OC)cc23)c(Cl)cc1Cl.O [Form I, 4-[(2,4-dichloro-5-methoxyphenyl)amino]-6-methoxy-7-[3-(4-methyl-1-piperazinyl)propoxy]-3-quinolinecarbonitrile monohydrate]
hygroscopicity [2]: not hygroscopic; also recorded: non-hydroscopic
loss of water at 0% relative humidity ([3]; 0% relative humidity for 10 days): does not lose water
stability to humidity (XRD and HPLC) ([3]; 75% humidity at 40° C. for 3 months): substantially pure and physically unchanged
stability to heat (XRD and HPLC) ([3]; 90° C. for 2 weeks): substantially pure and physically unchanged
stability to light (XRD and HPLC) ([3]; 510 foot-candles (~5490 lux) light for two weeks): substantially pure and physically unchanged
loss of water on heating ([3]; heated to 90° C. for over 100 hours): does not lose water
solubility (physchem; aqueous with cosolvent or surfactant or cyclodextrin, 2% Tween80/0.5% MC 0.06% acetic acid): 4000 µg/mL
solubility (physchem; pH 7.2, water, Water): 1.8 µg/mL
Solubility, 2% Tween80/0.5% MC 0.06% acetic acid ([1]; Table 4, (batch size 95, 50, 120, 54, 18.5, 550 g), listed as Pattern A, monohydrate): 4.25 (pH 5.7) mg/mL

COc1cc(Nc2c(C#N)cnc3cc(OCCCN4CCN(C)CC4)c(OC)cc23)c(Cl)cc1Cl [Form II, 4-[(2,4-dichloro-5-methoxyphenyl)amino]-6-methoxy-7-[3-(4-methyl-1-piperazinyl)propoxy]-3-quinolinecarbonitrile]
form conversion in heated water ([4]; listed as B): Converts to “I” in 95 °C

CC(C)O.COc1cc(Nc2c(C#N)cnc3cc(OCCCN4CCN(C)CC4)c(OC)cc23)c(Cl)cc1Cl [Form III, 4-[(2,4-dichloro-5-methoxyphenyl)amino]-6-methoxy-7-[3-(4-methyl-1-piperazinyl)propoxy]-3-quinolinecarbonitrile monoisopropyl alcoholate]
form conversion in heated water [4]: Converts to “I” in 95 °C

COc1cc(Nc2c(C#N)cnc3cc(OCCCN4CCN(C)CC4)c(OC)cc23)c(Cl)cc1Cl [Form IV, 4-[(2,4-dichloro-5-methoxyphenyl)amino]-6-methoxy-7-[3-(4-methyl-1-piperazinyl)propoxy]-3-quinolinecarbonitrile]
form conversion in heated water ([4]; listed as D): Converts to “I” in 90 °C
solubility ([1]; 2% Tween80/0.5% MC 0.06% acetic acid, aqueous with cosolvent or surfactant or cyclodextrin, Solubility, Table 4, (batch size 95, 50, 120, 54, 18.5, 550 g)): 3500 µg/mL (≈ 6600 µM)
solubility ([1]; 2% Tween 80/03% MC, aqueous with cosolvent or surfactant or cyclodextrin, Solubility, Table 4, (batch size 95, 50, 120, 54, 18.5, 550 g)): 70 µg/mL (≈ 132 µM)
Solubility, 2% Tween80/0.5% MC 0.06% acetic acid [1, 5]: 2.68 (pH 5.2) mg/mL
Solubility, 2% Tween 80/03% MC [1, 5]: 0.06 (pH 7.8) mg/mL

COc1cc(Nc2c(C#N)cnc3cc(OCCCN4CCN(C)CC4)c(OC)cc23)c(Cl)cc1Cl [Form V, 4-[(2,4-dichloro-5-methoxyphenyl)amino]-6-methoxy-7-[3-(4-methyl-1-piperazinyl)propoxy]-3-quinolinecarbonitrile]
form change in water at room temperature ([4]; suspended in water at room temperature, 2 months (two months and ten days), DSC, TGA, XRD): converted into a hydrated Form II; also recorded: hydrated to a metastable hydrate crystal form
form conversion in heated water [4]: Converts to “I” in 95 °C

CO.COc1cc(Nc2c(C#N)cnc3cc(OCCCN4CCN(C)CC4)c(OC)cc23)c(Cl)cc1Cl [Form VI, 4-[(2,4-dichloro-5-methoxyphenyl)amino]-6-methoxy-7-[3-(4-methyl-1-piperazinyl)propoxy]-3-quinolinecarbonitrile methanolate]
form conversion in heated water [4]: Converts to “I” in 95 °C
